Among the test systems are ACHN renal; CAKI-1 renal; COLO 205 colon; HCT-15 colon; HOP-62 NSCLC; HOP-92 NSCLC; IGROV1 ovarian; LOX IMVI melanoma; MALME-3M melanoma; MDA-MB-231 breast; MDA-N; MOLT-4 leukemia; NCI-H23 lung; NCI-H460 lung; OVCAR-3 ovarian; OVCAR-5 ovarian; PC-3 prostate; RXF 393 renal; SK-MEL-5 melanoma.
Common to all, as to assay: NCI tumour cell line growth inhibition, 48 h

Data on seven compounds can be found in PubChem BioAssay (NCI).

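Where inhibition never reached the appropriate level, the endpoint shown equals the highest concentration tested. Otherwise, values were interpolated linearly from a five-concentration, 48-hour dose response in 96-well plates. The concentration for full growth arrest is given as TGI.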

For the compound `O=C1CC(c2ccccc2)n2c(nc3ccccc32)N1` (stereo not drawn), the TGI in the experiment with ACHN renal, in the experiment on CAKI-1 renal, with COLO 205 colon, in the experiment on HCT-15 colon, with HOP-62 NSCLC and in the experiment on HOP-92 NSCLC was above 100 µM each time. In addition, the TGI with IGROV1 ovarian, in the experiment with LOX IMVI melanoma, in the experiment with MALME-3M melanoma, with MDA-MB-231 breast, in the experiment with MDA-N and in the experiment with MOLT-4 leukemia was above 100 µM in each case. In addition, the TGI with NCI-H23 lung, with NCI-H460 lung, in the experiment with OVCAR-3 ovarian, in the experiment on OVCAR-5 ovarian, with PC-3 prostate and with RXF 393 renal was above 100 µM each time. For the same compound, the TGI in the experiment on SK-MEL-5 melanoma was 42.8 µM.

For the compound `O=C(O)c1nn(-c2ccccc2)nc1-c1nn(-c2ccccc2)nc1C(=O)O`, the TGI in the experiment with ACHN renal, in the experiment on CAKI-1 renal, with COLO 205 colon, with HCT-15 colon, in the experiment with HOP-62 NSCLC and in the experiment with HOP-92 NSCLC was above 100 µM in each case. For the same compound, the TGI in the experiment on IGROV1 ovarian, in the experiment with LOX IMVI melanoma, with MALME-3M melanoma, with MDA-MB-231 breast, with MDA-N and in the experiment on MOLT-4 leukemia was above 100 µM each time. Also, the TGI in the experiment on NCI-H23 lung, in the experiment on NCI-H460 lung, with OVCAR-3 ovarian, with OVCAR-5 ovarian, with PC-3 prostate and with RXF 393 renal was above 100 µM each time. Moreover, the TGI in the experiment on SK-MEL-5 melanoma is above 100 µM.

With `CN(C)CCCn1c(Cn2nc3ccccc3n2)nc2cc(C(F)(F)F)ccc21`, the TGI in the experiment on ACHN renal was above 100 µM; in the experiment on CAKI-1 renal it was above 100 µM; with COLO 205 colon, 28.6 µM; with HCT-15 colon, above 100 µM; with HOP-62 NSCLC, above 100 µM; in the experiment with HOP-92 NSCLC, 89.9 µM. Also, the TGI was above 100 µM with IGROV1 ovarian; 34.6 µM with LOX IMVI melanoma; 24.4 µM with MALME-3M melanoma; above 100 µM in the experiment on MDA-MB-231 breast; 35.6 µM in the experiment with MDA-N; 45.6 µM in the experiment on MOLT-4 leukemia. The TGI in the experiment on NCI-H23 lung is above 100 µM; with NCI-H460 lung, 89 µM; with OVCAR-3 ovarian, above 100 µM; with OVCAR-5 ovarian, above 100 µM; with PC-3 prostate it was above 100 µM; in the experiment with RXF 393 renal it was above 100 µM. This compound showed a TGI in the experiment on SK-MEL-5 melanoma of 30.2 µM.

With `C(=N\NC1=NCCN1)/c1ccc2ccccc2c1`, the TGI in the experiment with ACHN renal turned out to be 33.7 µM; in the experiment with CAKI-1 renal, 28 µM; in the experiment with COLO 205 colon it was 20.4 µM; in the experiment with HCT-15 colon, 43.6 µM; with HOP-62 NSCLC, 31 µM; in the experiment on HOP-92 NSCLC, 13.3 µM. Also, the TGI stood at 24.6 µM in the experiment on IGROV1 ovarian; 26.7 µM in the experiment on LOX IMVI melanoma; 28.3 µM in the experiment with MALME-3M melanoma; 35.3 µM in the experiment on MDA-MB-231 breast; 27.9 µM in the experiment on MDA-N; 42.8 µM in the experiment with MOLT-4 leukemia. The TGI amounted to 51.1 µM in the experiment with NCI-H23 lung; 29.5 µM in the experiment with NCI-H460 lung; 32.9 µM in the experiment with OVCAR-3 ovarian; 44 µM with OVCAR-5 ovarian; 28.5 µM in the experiment on PC-3 prostate; 34.6 µM in the experiment on RXF 393 renal. Besides, in the experiment on SK-MEL-5 melanoma, the TGI turned out to be 25.9 µM.

Consider `CCCN(CCC)C(=O)c1c(N2CCN(C)CC2)c2cccnc2n2c(C)cnc12`, for which the TGI in the experiment with ACHN renal, with CAKI-1 renal, in the experiment with COLO 205 colon, in the experiment with HCT-15 colon, with HOP-62 NSCLC and in the experiment on HOP-92 NSCLC was above 100 µM in each case. The TGI in the experiment with IGROV1 ovarian, in the experiment on LOX IMVI melanoma, with MALME-3M melanoma, in the experiment with MDA-MB-231 breast, in the experiment on MDA-N and in the experiment with MOLT-4 leukemia was above 100 µM throughout. The TGI in the experiment on NCI-H23 lung, in the experiment with NCI-H460 lung, with OVCAR-3 ovarian, with OVCAR-5 ovarian, in the experiment on PC-3 prostate and in the experiment with RXF 393 renal was above 100 µM throughout. Also, the TGI with SK-MEL-5 melanoma was above 100 µM.

As for `COc1ccc2c(c1)/c(=C/C#N)c1c3ccccc3[n+](C)n21`, the TGI in the experiment with ACHN renal stood at 32 µM; in the experiment with CAKI-1 renal, 47.3 µM; with COLO 205 colon it was 8.33 µM; in the experiment on HCT-15 colon, 59.8 µM; with HOP-62 NSCLC, 29.6 µM; in the experiment with HOP-92 NSCLC it was 5.89 µM. In addition, the TGI in the experiment on IGROV1 ovarian is 31 µM; in the experiment on LOX IMVI melanoma it was 28.6 µM; in the experiment on MALME-3M melanoma, 14.3 µM; in the experiment with MDA-MB-231 breast it was 64.4 µM; in the experiment on MDA-N it was 40.9 µM; with MOLT-4 leukemia, above 57.2 µM. The TGI in the experiment with NCI-H23 lung was determined as 45.4 µM; in the experiment with NCI-H460 lung, 32.9 µM; in the experiment with OVCAR-3 ovarian, 4.29 µM; in the experiment with OVCAR-5 ovarian, 42.8 µM; in the experiment with PC-3 prostate, 11.7 µM; in the experiment with RXF 393 renal, 50.1 µM. The TGI in the experiment with SK-MEL-5 melanoma is above 44.8 µM.

For the compound `CCN(CC)CCC1CCCCN1CC(=O)N1c2cc(Cl)ccc2NC(=O)CC1C` (stereo not drawn), the TGI in the experiment with ACHN renal, in the experiment on CAKI-1 renal, in the experiment with COLO 205 colon, in the experiment with HCT-15 colon, in the experiment on HOP-62 NSCLC and with HOP-92 NSCLC was above 100 µM throughout. The TGI in the experiment with IGROV1 ovarian, with LOX IMVI melanoma, in the experiment on MALME-3M melanoma, with MDA-MB-231 breast, with MDA-N and with MOLT-4 leukemia was above 100 µM throughout. For the same compound, the TGI in the experiment on NCI-H23 lung, in the experiment with NCI-H460 lung, with OVCAR-3 ovarian, in the experiment with OVCAR-5 ovarian, in the experiment with PC-3 prostate and in the experiment with RXF 393 renal was above 100 µM each time. Further, the TGI in the experiment on SK-MEL-5 melanoma is above 100 µM.
